Measurements as given in ChEMBL document CHEMBL4507290 (2021).

Columns and labels:
[1] = target: AP2-associated protein kinase 1 (Homo sapiens) (UniProt Q2M2I8); details: Compound concentration 1000.0 nM
[2] = target: Activin receptor type-2B (Homo sapiens) (UniProt Q13705); details: Compound concentration 1000.0 nM
[3] = target: Bone morphogenetic protein receptor type-2 (Homo sapiens) (UniProt Q13873); details: Compound concentration 1000.0 nM
[4] = target: Cytoplasmic tyrosine-protein kinase BMX (Homo sapiens) (UniProt P51813); details: Compound concentration 1000.0 nM
[5] = target: Calcium/calmodulin-dependent protein kinase type II subunit gamma (Homo sapiens) (UniProt Q13555); details: Compound concentration 1000.0 nM
[6] = target: Calcium/calmodulin-dependent protein kinase kinase 1 (Homo sapiens) (UniProt Q8N5S9); details: Compound concentration 1000.0 nM
[7] = target: Cyclin-dependent kinase 4 (Homo sapiens) (UniProt P11802); details: Compound concentration 1000.0 nM
[8] = target: Cyclin-dependent kinase 4 (Homo sapiens) (UniProt P11802); details: Compound concentration 1000.0 nM; remark: listed apart in the source
[9] = target: Cyclin-dependent kinase 5 (Homo sapiens) (UniProt Q00535); details: Compound concentration 1000.0 nM
[10] = target: Dual specificity protein kinase CLK3 (Homo sapiens) (UniProt P49761); details: Compound concentration 1000.0 nM
[11] = target: Casein kinase I isoform alpha (Homo sapiens) (UniProt P48729); details: Compound concentration 1000.0 nM
[12] = target: Casein kinase I isoform epsilon (Homo sapiens) (UniProt P49674); details: Compound concentration 1000.0 nM
[13] = target: Death-associated protein kinase 3 (Homo sapiens) (UniProt O43293); details: Compound concentration 1000.0 nM
[14] = target: Dual specificity tyrosine-phosphorylation-regulated kinase 1A (Homo sapiens) (UniProt Q13627); details: Compound concentration 1000.0 nM
[15] = target: Dual specificity tyrosine-phosphorylation-regulated kinase 1B (Homo sapiens) (UniProt Q9Y463); details: Compound concentration 1000.0 nM
[16] = tested on: Epidermal growth factor receptor (Homo sapiens), P00533 [UNDEFINED MUTATION]; details: Compound concentration 1000.0 nM
[17] = target: Ephrin type-A receptor 3 (Homo sapiens) (UniProt P29320); details: Compound concentration 1000.0 nM
[18] = target: Ephrin type-B receptor 4 (Homo sapiens) (UniProt P54760); details: Compound concentration 1000.0 nM
[19] = tested on: Receptor-type tyrosine-protein kinase FLT3 (Homo sapiens), P36888 [D835V]; details: Compound concentration 1000.0 nM
[20] = target: Glycogen synthase kinase-3 alpha (Homo sapiens) (UniProt P49840); details: Compound concentration 1000.0 nM
[21] = target: Serine/threonine-protein kinase haspin (Homo sapiens) (UniProt Q8TF76); details: Compound concentration 1000.0 nM
[22] = target: Insulin receptor-related protein (Homo sapiens) (UniProt P14616); details: Compound concentration 1000.0 nM
[23] = target: Mitogen-activated protein kinase 10 (Homo sapiens) (UniProt P53779); details: Compound concentration 1000.0 nM
[24] = tested on: Mast/stem cell growth factor receptor Kit (Homo sapiens), P10721 [D816H]; details: Compound concentration 1000.0 nM
[25] = target: Serine/threonine-protein kinase LATS1 (Homo sapiens) (UniProt O95835); details: Compound concentration 1000.0 nM
[26] = target: Myosin light chain kinase 2, skeletal/cardiac muscle (Homo sapiens) (UniProt Q9H1R3); details: Compound concentration 1000.0 nM
[27] = target: Phosphatidylinositol 5-phosphate 4-kinase type-2 beta (Homo sapiens) (UniProt P78356); details: Compound concentration 1000.0 nM
[28] = target: Serine/threonine-protein kinase PLK3 (Homo sapiens) (UniProt Q9H4B4); details: Compound concentration 1000.0 nM
[29] = target: cAMP-dependent protein kinase catalytic subunit PRKX (Homo sapiens) (UniProt P51817); details: Compound concentration 1000.0 nM
[30] = target: Serine/threonine-protein kinase RIO1 (Homo sapiens) (UniProt Q9BRS2); details: Compound concentration 1000.0 nM
[31] = target: Serine/threonine-protein kinase RIO3 (Homo sapiens) (UniProt O14730); details: Compound concentration 1000.0 nM
[32] = target: Dual serine/threonine and tyrosine protein kinase (Homo sapiens) (UniProt Q6XUX3); details: Compound concentration 1000.0 nM
[33] = target: Ribosomal protein S6 kinase alpha-4 (Homo sapiens) (UniProt O75676); details: Compound concentration 1000.0 nM
[34] = target: Ribosomal protein S6 kinase alpha-6 (Homo sapiens) (UniProt Q9UK32); details: Compound concentration 1000.0 nM
[35] = target: Proto-oncogene tyrosine-protein kinase Src (Homo sapiens) (UniProt P12931); details: Compound concentration 1000.0 nM
[36] = target: Angiopoietin-1 receptor (Homo sapiens) (UniProt Q02763); details: Compound concentration 1000.0 nM
[37] = target: Dual specificity protein kinase TTK (Homo sapiens) (UniProt P33981); details: Compound concentration 1000.0 nM
[38] = target: Serine/threonine-protein kinase 32A (Homo sapiens) (UniProt Q8WU08); details: Compound concentration 1000.0 nM
[39] = target: Serine/threonine-protein kinase 32B (Homo sapiens) (UniProt Q9NY57); details: Compound concentration 1000.0 nM
[40] = target: Serine/threonine-protein kinase 32C (Homo sapiens) (UniProt Q86UX6); details: Compound concentration 1000.0 nM
[41] = target: 5-hydroxytryptamine receptor 1E (Homo sapiens) (UniProt P28566); details: Compound concentration 10.0 uM
[42] = target: 5-hydroxytryptamine receptor 2C (Homo sapiens) (UniProt P28335); details: Compound concentration 10.0 uM
[43] = target: D(4) dopamine receptor (Homo sapiens) (UniProt P21917); details: Compound concentration 10.0 uM
[44] = target: Muscarinic acetylcholine receptor M1 (Homo sapiens) (UniProt P11229); details: Compound concentration 10.0 uM
[45] = target: Muscarinic acetylcholine receptor M4 (Homo sapiens) (UniProt P08173); details: Compound concentration 10.0 uM

Cyclin-dependent kinase 4 (Homo sapiens), sequence (P11802 whole entry): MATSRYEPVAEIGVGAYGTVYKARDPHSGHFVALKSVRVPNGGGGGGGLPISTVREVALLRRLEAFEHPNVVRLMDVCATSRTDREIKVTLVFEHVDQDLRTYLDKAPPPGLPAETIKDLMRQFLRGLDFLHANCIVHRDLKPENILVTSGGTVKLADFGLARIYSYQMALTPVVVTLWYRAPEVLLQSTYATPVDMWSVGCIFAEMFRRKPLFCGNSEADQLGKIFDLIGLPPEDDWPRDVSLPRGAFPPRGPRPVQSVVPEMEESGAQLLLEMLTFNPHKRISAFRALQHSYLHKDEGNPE
Glycogen synthase kinase-3 alpha (Homo sapiens), sequence (P49840 2-483 limits assumed): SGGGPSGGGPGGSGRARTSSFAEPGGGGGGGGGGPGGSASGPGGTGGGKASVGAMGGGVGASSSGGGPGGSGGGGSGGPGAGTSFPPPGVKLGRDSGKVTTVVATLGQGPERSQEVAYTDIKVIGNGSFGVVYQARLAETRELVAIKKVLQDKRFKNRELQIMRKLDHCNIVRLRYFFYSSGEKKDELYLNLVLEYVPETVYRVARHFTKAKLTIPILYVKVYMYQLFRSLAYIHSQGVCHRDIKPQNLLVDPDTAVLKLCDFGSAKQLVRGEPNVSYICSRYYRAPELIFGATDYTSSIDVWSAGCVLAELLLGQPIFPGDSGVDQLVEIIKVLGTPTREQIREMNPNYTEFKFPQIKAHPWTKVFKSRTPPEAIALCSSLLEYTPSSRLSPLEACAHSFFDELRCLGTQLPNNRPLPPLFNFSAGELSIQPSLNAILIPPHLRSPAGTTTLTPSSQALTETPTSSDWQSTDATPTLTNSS
Serine/threonine-protein kinase haspin (Homo sapiens), sequence (Q8TF76 whole entry): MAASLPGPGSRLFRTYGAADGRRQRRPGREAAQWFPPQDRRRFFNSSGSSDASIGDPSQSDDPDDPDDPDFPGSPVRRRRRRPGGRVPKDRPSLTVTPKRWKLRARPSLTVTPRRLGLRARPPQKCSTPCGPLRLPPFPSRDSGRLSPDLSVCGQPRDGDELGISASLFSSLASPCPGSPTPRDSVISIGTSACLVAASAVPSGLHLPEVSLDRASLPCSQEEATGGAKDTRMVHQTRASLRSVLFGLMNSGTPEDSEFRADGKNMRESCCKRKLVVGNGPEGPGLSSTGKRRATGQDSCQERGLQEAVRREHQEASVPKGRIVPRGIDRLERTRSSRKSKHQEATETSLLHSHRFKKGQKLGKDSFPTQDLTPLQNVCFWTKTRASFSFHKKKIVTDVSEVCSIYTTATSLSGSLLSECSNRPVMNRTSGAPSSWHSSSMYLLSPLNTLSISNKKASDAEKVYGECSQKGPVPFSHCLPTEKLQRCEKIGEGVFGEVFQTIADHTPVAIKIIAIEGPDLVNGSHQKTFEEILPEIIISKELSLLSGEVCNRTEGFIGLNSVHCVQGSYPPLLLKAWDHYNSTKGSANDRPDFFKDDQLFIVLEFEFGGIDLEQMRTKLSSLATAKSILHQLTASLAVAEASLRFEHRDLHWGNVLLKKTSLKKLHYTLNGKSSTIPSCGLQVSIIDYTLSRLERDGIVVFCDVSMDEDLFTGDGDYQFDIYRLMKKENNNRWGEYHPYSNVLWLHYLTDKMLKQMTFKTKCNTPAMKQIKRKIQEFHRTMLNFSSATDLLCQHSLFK
Proto-oncogene tyrosine-protein kinase Src (Homo sapiens), sequence (P12931 2-536 limits assumed): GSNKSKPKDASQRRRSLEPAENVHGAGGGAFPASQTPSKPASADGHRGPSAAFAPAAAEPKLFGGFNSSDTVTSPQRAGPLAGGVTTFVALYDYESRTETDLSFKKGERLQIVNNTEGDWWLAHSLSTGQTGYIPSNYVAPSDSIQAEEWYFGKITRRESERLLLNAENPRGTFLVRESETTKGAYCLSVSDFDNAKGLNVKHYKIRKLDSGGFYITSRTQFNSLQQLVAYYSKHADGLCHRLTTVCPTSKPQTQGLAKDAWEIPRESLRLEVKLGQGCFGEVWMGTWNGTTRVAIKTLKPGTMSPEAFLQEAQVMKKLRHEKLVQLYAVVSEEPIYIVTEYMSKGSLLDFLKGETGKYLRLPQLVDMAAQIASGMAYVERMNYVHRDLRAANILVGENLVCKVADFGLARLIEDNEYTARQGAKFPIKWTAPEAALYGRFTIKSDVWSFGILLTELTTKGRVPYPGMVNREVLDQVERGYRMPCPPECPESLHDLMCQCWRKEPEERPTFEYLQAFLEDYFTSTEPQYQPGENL
Serine/threonine-protein kinase 32A (Homo sapiens), sequence (Q8WU08 whole entry): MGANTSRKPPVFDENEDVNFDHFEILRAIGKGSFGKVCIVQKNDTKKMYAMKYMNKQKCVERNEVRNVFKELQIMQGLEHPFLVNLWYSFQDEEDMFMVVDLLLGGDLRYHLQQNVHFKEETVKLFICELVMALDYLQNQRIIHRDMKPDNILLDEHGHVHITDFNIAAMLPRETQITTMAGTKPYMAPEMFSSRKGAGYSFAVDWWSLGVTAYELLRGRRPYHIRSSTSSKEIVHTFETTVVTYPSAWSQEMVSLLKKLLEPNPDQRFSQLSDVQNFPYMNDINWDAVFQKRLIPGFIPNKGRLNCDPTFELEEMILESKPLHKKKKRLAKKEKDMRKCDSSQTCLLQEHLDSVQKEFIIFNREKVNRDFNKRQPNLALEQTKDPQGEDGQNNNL
Bone morphogenetic protein receptor type-2 (Homo sapiens), sequence (Q13873 whole entry): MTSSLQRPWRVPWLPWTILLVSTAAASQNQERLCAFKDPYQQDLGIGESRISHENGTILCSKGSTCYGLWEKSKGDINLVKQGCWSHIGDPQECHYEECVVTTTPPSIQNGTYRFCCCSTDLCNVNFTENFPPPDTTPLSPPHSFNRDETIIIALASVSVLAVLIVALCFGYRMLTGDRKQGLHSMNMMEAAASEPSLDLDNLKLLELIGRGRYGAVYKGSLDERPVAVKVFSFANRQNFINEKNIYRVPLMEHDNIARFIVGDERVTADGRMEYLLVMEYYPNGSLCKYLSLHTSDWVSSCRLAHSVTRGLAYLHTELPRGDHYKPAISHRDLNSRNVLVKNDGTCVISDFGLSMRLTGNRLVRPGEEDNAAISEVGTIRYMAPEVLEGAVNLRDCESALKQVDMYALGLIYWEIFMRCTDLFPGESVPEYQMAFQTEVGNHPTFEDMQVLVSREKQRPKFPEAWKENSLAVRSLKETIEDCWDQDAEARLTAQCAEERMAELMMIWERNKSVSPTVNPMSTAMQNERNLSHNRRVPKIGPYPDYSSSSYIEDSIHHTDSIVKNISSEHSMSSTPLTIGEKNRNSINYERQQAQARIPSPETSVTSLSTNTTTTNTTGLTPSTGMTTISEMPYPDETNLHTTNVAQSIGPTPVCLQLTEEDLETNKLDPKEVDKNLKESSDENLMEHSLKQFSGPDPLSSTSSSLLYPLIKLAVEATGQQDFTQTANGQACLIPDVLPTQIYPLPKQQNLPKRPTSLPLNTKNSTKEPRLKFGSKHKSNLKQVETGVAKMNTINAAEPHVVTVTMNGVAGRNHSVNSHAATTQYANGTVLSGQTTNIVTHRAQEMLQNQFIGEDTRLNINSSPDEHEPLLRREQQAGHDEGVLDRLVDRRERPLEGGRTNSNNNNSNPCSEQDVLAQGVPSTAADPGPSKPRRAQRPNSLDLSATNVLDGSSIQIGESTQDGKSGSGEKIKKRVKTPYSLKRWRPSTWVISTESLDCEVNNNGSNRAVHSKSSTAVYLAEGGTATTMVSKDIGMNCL
cAMP-dependent protein kinase catalytic subunit PRKX (Homo sapiens), sequence (P51817 whole entry): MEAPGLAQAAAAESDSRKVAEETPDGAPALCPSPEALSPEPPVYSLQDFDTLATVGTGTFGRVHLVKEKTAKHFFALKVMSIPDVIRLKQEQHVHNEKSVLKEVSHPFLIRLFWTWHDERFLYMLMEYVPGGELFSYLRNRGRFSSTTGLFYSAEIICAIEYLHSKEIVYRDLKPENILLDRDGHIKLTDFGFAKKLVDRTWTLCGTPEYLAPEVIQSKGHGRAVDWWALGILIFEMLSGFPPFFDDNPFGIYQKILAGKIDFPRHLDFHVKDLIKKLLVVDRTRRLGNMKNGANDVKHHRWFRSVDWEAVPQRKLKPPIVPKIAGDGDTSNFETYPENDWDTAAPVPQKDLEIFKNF
Dual specificity protein kinase CLK3 (Homo sapiens), sequence (P49761 whole entry, looked up, canonical isoform): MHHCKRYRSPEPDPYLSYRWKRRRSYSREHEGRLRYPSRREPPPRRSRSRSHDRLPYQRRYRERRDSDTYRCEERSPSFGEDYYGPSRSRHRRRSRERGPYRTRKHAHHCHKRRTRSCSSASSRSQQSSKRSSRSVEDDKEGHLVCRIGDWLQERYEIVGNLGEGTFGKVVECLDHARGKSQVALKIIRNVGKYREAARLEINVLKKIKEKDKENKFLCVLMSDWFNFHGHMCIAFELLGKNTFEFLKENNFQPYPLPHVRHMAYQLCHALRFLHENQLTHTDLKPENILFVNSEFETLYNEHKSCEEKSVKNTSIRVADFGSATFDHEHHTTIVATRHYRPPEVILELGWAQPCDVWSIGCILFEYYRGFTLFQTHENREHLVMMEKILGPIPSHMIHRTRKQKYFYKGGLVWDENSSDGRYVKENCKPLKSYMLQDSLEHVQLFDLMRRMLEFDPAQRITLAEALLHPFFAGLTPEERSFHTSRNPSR
Mitogen-activated protein kinase 10 (Homo sapiens), sequence (P53779 whole entry): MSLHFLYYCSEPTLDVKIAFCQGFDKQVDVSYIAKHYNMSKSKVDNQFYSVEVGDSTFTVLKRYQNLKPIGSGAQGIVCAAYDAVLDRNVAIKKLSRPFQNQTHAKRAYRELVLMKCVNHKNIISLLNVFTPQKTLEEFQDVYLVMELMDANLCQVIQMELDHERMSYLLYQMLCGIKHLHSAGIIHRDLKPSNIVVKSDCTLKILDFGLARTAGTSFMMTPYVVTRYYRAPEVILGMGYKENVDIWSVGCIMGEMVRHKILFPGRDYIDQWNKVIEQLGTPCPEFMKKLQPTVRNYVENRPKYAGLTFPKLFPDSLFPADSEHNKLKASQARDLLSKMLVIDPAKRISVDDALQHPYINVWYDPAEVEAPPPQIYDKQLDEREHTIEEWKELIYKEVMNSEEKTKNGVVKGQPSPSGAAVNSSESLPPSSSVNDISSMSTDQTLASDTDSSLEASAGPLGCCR

**Q.** Which results are given for CN([C@@H]1CCc2c(CC(=O)O)c3cc(S(C)(=O)=O)ccc3n2C1)S(=O)(=O)c1ccc(F)cc1?
**A.** residual activity [1]: 100%; residual activity [2]: 100%; residual activity [3]: 100%; residual activity [4]: 100%; residual activity [5]: 100%; residual activity [6]: 100%; residual activity [7]: 90%; residual activity [8]: 93%; residual activity [9]: 86%; residual activity [10]: 100%; residual activity [11]: 100%; residual activity [12]: 96%; residual activity [13]: 97%; residual activity [14]: 81%; residual activity [15]: 36%; residual activity [16]: 80%; residual activity [17]: 97%; residual activity [18]: 95%; residual activity [19]: 99%; residual activity [20]: 100%; residual activity [21]: 83%; residual activity [22]: 100%; residual activity [23]: 100%; residual activity [24]: 97%; residual activity [25]: 61%; residual activity [26]: 100%; residual activity [27]: 59%; residual activity [28]: 70%; residual activity [29]: 100%; residual activity [30]: 100%; residual activity [31]: 94%; residual activity [32]: 77%; residual activity [33]: 97%; residual activity [34]: 100%; residual activity [35]: 96%; residual activity [36]: 88%; residual activity [37]: 100%; residual activity [38]: 100%; residual activity [39]: 100%; residual activity [40]: 100%; inhibition [41]: 5.5%; inhibition [42]: 0.933%; inhibition [43]: 2.8%; inhibition [44]: -1.48%; inhibition [45]: -1.13%

**Q.** How did the residual activity [1] turn out when CN([C@@H]1CCc2c(CC(=O)O)c3ccccc3n2C1)S(=O)(=O)c1ccc(F)cc1 [MK-7246] was run?
**A.** 100%

**Q.** What about the residual activity [2] of the same compound?
**A.** 98%

**Q.** What about the residual activity [3] of the same compound?
**A.** 100%

**Q.** What about the residual activity [4] of the same compound?
**A.** 100%

**Q.** And the residual activity [5]?
**A.** 100%

**Q.** And the residual activity [6]?
**A.** 91%

**Q.** And the residual activity [7]?
**A.** 87%

**Q.** What about the residual activity [8] of the same compound?
**A.** 100%

**Q.** And the residual activity [9]?
**A.** 100%

**Q.** And the residual activity [10]?
**A.** 97%

**Q.** And the residual activity [11]?
**A.** 80%

**Q.** And the residual activity [12]?
**A.** 90%

**Q.** What about the residual activity [13] of the same compound?
**A.** 87%

**Q.** What about the residual activity [14] of the same compound?
**A.** 69%

**Q.** And the residual activity [15]?
**A.** 44%

**Q.** And the residual activity [16]?
**A.** 95%

**Q.** What about the residual activity [17] of the same compound?
**A.** 95%

**Q.** What about the residual activity [18] of the same compound?
**A.** 95%

**Q.** What about the residual activity [19] of the same compound?
**A.** 94%

**Q.** And the residual activity [20]?
**A.** 90%

**Q.** And the residual activity [21]?
**A.** 100%

**Q.** What about the residual activity [22] of the same compound?
**A.** 100%

**Q.** And the residual activity [23]?
**A.** 100%

**Q.** And the residual activity [24]?
**A.** 95%

**Q.** And the residual activity [25]?
**A.** 69%

**Q.** And the residual activity [26]?
**A.** 100%

**Q.** What about the residual activity [27] of the same compound?
**A.** 80%

**Q.** And the residual activity [28]?
**A.** 85%

**Q.** What about the residual activity [29] of the same compound?
**A.** 100%

**Q.** And the residual activity [30]?
**A.** 100%

**Q.** And the residual activity [31]?
**A.** 100%

**Q.** And the residual activity [32]?
**A.** 82%

**Q.** And the residual activity [33]?
**A.** 96%

**Q.** What about the residual activity [34] of the same compound?
**A.** 100%

**Q.** What about the residual activity [35] of the same compound?
**A.** 100%

**Q.** And the residual activity [36]?
**A.** 92%

**Q.** And the residual activity [37]?
**A.** 100%

**Q.** And the residual activity [38]?
**A.** 100%

**Q.** And the residual activity [39]?
**A.** 100%

**Q.** And the residual activity [40]?
**A.** 100%

**Q.** And the inhibition [41]?
**A.** 35.8%

**Q.** What about the inhibition [42] of the same compound?
**A.** -1.51%

**Q.** And the inhibition [43]?
**A.** 3.14%

**Q.** And the inhibition [44]?
**A.** 2.42%

**Q.** And the inhibition [45]?
**A.** 24.4%
